The test relates to chitotriosidase. In words: Plasma chitotriosidase activity in L444P transgenic mice. It counts as in vivo. Here is the method: Isofagomine treatment. Mice were administered isofagomine tartrate in their drinking water, ad libitum, at a concentration of 20 mg/kg.
Surrogate marker measurement. At the end of 4, 12, or 24 weeks, mice were sacrificed and evaluated for (i) enhancement of GCase enzyme activity in liver, spleen, lung and brain; (ii) chitotriosidase activity; (ii) body, spleen, and liver weight; and (iv) serum IgG, cholesterol, and liver enzyme levels. In addition, chaperone concentration in plasma and in the foregoing tissues will also be determined.
c. Chitotriosidase activity: Plasma is collected for the assay in 5 μl aliquots (in duplicate), and the remaining is stored at −80° C. 5 μl of plasma/EDTA is mixed with 100 μl 22 μM 4-MU-b-D-N,N′N″-triacetylchitotriose in citrate phosphate buffer (0.1M citrate and 0.2M phosphate buffer, pH5.2; made by mixing 185 ml 0.1 M citric acid and 200 ml 0.2 M sodium phosphate) in a 96 well black plate. 5 μl of EDTA/PBS (no plasma) is used as a negative control. A standard curve with standard serum is prepared by serial dilution in one row of the plate. The plate is then incubated for 15 minutes at 37° C. (floating in a hot water bath), and the reaction stopped by adding 150 μl 1M glycine, pH 10.8. The plate is read at F355/F460 in a Victor^2 1420 multilabel counter (Wallac).

For the compound `OC[C@H]1CNC[C@@H](O)[C@@H]1O` [isofagomine, (3R,4R,5R)-5-(hydroxymethyl)-3,4-piperidinediol], the chitotriosidase levels result is “no difference” (after 4 weeks of treatment, versus untreated) and “about 17,000 μg of protein” (after 12 weeks, untreated >20,000, wild-type about 7500, p=0.1).

Source of the values: patent publication US8399525B2, “Treatment of gaucher disease with specific pharmacological chaperones and monitoring treatment using surrogate markers” (Amicus Therapeutics, Inc., priority 2007, dated 2013).
